Data: PubChem BioAssay (NCI)
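Five compound concentrations were applied to cells in 96-well plates for 48 hours; endpoints were derived by simple linear interpolation of the resulting dose-response curve. GI50 = concentration required for 50% inhibition of growth. Definition used: TGI = concentration required for complete inhibition of growth.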

Legend:
Assay in all cases: DTP human tumour cell line panel, 48 h
SF-539 CNS = system: SF-539 CNS
SNB-19 CNS = system: SNB-19 CNS
ACHN renal = system: ACHN renal
OVCAR-8 ovarian = system: OVCAR-8 ovarian
HCC-2998 colon = system: HCC-2998 colon
BT-549 breast = system: BT-549 breast
NCI-H226 lung = system: NCI-H226 lung
SNB-75 CNS = system: SNB-75 CNS
SK-MEL-2 melanoma = system: SK-MEL-2 melanoma
LOX IMVI melanoma = system: LOX IMVI melanoma
MDA-MB-435 = system: MDA-MB-435
NCI-H23 lung = system: NCI-H23 lung
NCI-H460 lung = system: NCI-H460 lung
MOLT-4 leukemia = system: MOLT-4 leukemia
SN12C renal = system: SN12C renal
SK-MEL-28 melanoma = system: SK-MEL-28 melanoma
TK-10 renal = system: TK-10 renal
UACC-62 melanoma = system: UACC-62 melanoma
786-0 renal = system: 786-0 renal
MCF7 breast = system: MCF7 breast
HCT-116 colon = system: HCT-116 colon
IGROV1 ovarian = system: IGROV1 ovarian
PC-3 prostate = system: PC-3 prostate
MDA-MB-231 breast = system: MDA-MB-231 breast
SW-620 colon = system: SW-620 colon
HL-60(TB) leukemia = system: HL-60(TB) leukemia
RPMI-8226 leukemia = system: RPMI-8226 leukemia
KM12 colon = system: KM12 colon
HS 578T breast = system: HS 578T breast
RXF 393 renal = system: RXF 393 renal
DU-145 prostate = system: DU-145 prostate
CCRF-CEM leukemia = system: CCRF-CEM leukemia
NCI-H522 lung = system: NCI-H522 lung
SF-268 CNS = system: SF-268 CNS
A549 NSCLC = system: A549 NSCLC
NCI/ADR-RES ovarian = system: NCI/ADR-RES ovarian
K-562 leukemia = system: K-562 leukemia
HOP-62 NSCLC = system: HOP-62 NSCLC
U251 CNS = system: U251 CNS
SR leukemia = system: SR leukemia
UACC-257 melanoma = system: UACC-257 melanoma
OVCAR-5 ovarian = system: OVCAR-5 ovarian
T-47D breast = system: T-47D breast
M14 melanoma = system: M14 melanoma
SK-MEL-5 melanoma = system: SK-MEL-5 melanoma
HT29 colon = system: HT29 colon
EKVX NSCLC = system: EKVX NSCLC
CAKI-1 renal = system: CAKI-1 renal
OVCAR-3 ovarian = system: OVCAR-3 ovarian
SF-295 CNS = system: SF-295 CNS
HCT-15 colon = system: HCT-15 colon
HOP-92 NSCLC = system: HOP-92 NSCLC
COLO 205 colon = system: COLO 205 colon
SK-OV-3 ovarian = system: SK-OV-3 ovarian
OVCAR-4 ovarian = system: OVCAR-4 ovarian
A498 renal = system: A498 renal

With `O=C(Nc1cc(C(F)(F)F)ccc1Cl)c1ccc(NC2=C(Cl)C(=O)N(Cc3ccccc3)C2=O)cc1` the GI50 (SF-539 CNS) was 28.9 µM, the TGI (SF-539 CNS) was 77.5 µM and the GI50 (SNB-19 CNS) was 30.4 µM. The TGI (SNB-19 CNS) was > 100 µM, the GI50 (ACHN renal) was 23.8 µM and the TGI (ACHN renal) was 64.9 µM. For the same compound, the GI50 (OVCAR-8 ovarian) was 14.6 µM, the TGI (OVCAR-8 ovarian) was 41.3 µM and the GI50 (HCC-2998 colon) was 5.28 µM. It also gave a TGI (HCC-2998 colon) of 9.11 µM, a GI50 (BT-549 breast) of 15 µM and a TGI (BT-549 breast) of 39.7 µM. For the same compound, the GI50 (NCI-H226 lung) was 13.9 µM, the TGI (NCI-H226 lung) was 65.5 µM and the GI50 (SNB-75 CNS) was 56.1 µM. The TGI (SNB-75 CNS) was > 100 µM, the GI50 (SK-MEL-2 melanoma) was 18.6 µM and the TGI (SK-MEL-2 melanoma) was 40.6 µM. For the same compound, the GI50 (LOX IMVI melanoma) was 4.11 µM, the TGI (LOX IMVI melanoma) was > 100 µM and the GI50 (MDA-MB-435) was 29.5 µM. For the same compound, the TGI (MDA-MB-435) was > 100 µM, the GI50 (NCI-H23 lung) was 18.9 µM and the TGI (NCI-H23 lung) was 43.9 µM. The GI50 (NCI-H460 lung) was 34.3 µM, the TGI (NCI-H460 lung) was > 100 µM and the GI50 (MOLT-4 leukemia) was 3.53 µM. It also gave a TGI (MOLT-4 leukemia) of 77.7 µM, a GI50 (SN12C renal) of 19.6 µM and a TGI (SN12C renal) of 61.2 µM. The GI50 (SK-MEL-28 melanoma) was 23.9 µM, the TGI (SK-MEL-28 melanoma) was 63.5 µM and the GI50 (TK-10 renal) was 24.7 µM. The TGI (TK-10 renal) was 62.3 µM, the GI50 (UACC-62 melanoma) was 16.7 µM and the TGI (UACC-62 melanoma) was 38.9 µM. For the same compound, the GI50 (786-0 renal) was 23.4 µM, the TGI (786-0 renal) was > 100 µM and the GI50 (MCF7 breast) was 11.6 µM. The TGI (MCF7 breast) was > 100 µM, the GI50 (HCT-116 colon) was 17.2 µM and the TGI (HCT-116 colon) was > 100 µM. For the same compound, the GI50 (IGROV1 ovarian) was 1.99 µM, the TGI (IGROV1 ovarian) was 6.41 µM and the GI50 (PC-3 prostate) was 14.8 µM. For the same compound, the TGI (PC-3 prostate) was 37.8 µM, the GI50 (MDA-MB-231 breast) was 18.8 µM and the TGI (MDA-MB-231 breast) was 69.2 µM. For the same compound, the GI50 (SW-620 colon) was 6.72 µM, the TGI (SW-620 colon) was > 100 µM and the GI50 (HL-60(TB) leukemia) was 3.08 µM. The TGI (HL-60(TB) leukemia) was 9.33 µM, the GI50 (RPMI-8226 leukemia) was 2.65 µM and the TGI (RPMI-8226 leukemia) was 8.51 µM. It also gave a GI50 (KM12 colon) of 23.7 µM, a TGI (KM12 colon) of 74.9 µM and a GI50 (HS 578T breast) of 31.9 µM. For the same compound, the TGI (HS 578T breast) was > 100 µM, the GI50 (RXF 393 renal) was 23.7 µM and the TGI (RXF 393 renal) was 73 µM. The GI50 (DU-145 prostate) was 26.9 µM, the TGI (DU-145 prostate) was 80.9 µM and the GI50 (CCRF-CEM leukemia) was 1.42 µM. For the same compound, the TGI (CCRF-CEM leukemia) was 11.7 µM, the GI50 (NCI-H522 lung) was 11.1 µM and the TGI (NCI-H522 lung) was 28 µM. For the same compound, the GI50 (SF-268 CNS) was 32.7 µM, the TGI (SF-268 CNS) was > 100 µM and the GI50 (A549 NSCLC) was > 100 µM. The TGI (A549 NSCLC) was > 100 µM, the GI50 (NCI/ADR-RES ovarian) was 62.7 µM and the TGI (NCI/ADR-RES ovarian) was > 100 µM. For the same compound, the GI50 (K-562 leukemia) was 3.67 µM, the TGI (K-562 leukemia) was 19.6 µM and the GI50 (HOP-62 NSCLC) was > 100 µM. The TGI (HOP-62 NSCLC) was > 100 µM, the GI50 (U251 CNS) was 22.6 µM and the TGI (U251 CNS) was > 100 µM. For the same compound, the GI50 (SR leukemia) was 1.3 µM, the TGI (SR leukemia) was 4.4 µM and the GI50 (UACC-257 melanoma) was 31.7 µM. For the same compound, the TGI (UACC-257 melanoma) was 96.9 µM, the GI50 (OVCAR-5 ovarian) was > 100 µM and the TGI (OVCAR-5 ovarian) was > 100 µM. For the same compound, the GI50 (T-47D breast) was 14.1 µM, the TGI (T-47D breast) was > 100 µM and the GI50 (M14 melanoma) was 37.6 µM. For the same compound, the TGI (M14 melanoma) was > 100 µM, the GI50 (SK-MEL-5 melanoma) was 18.6 µM and the TGI (SK-MEL-5 melanoma) was 60.4 µM. The GI50 (HT29 colon) was 26.6 µM, the TGI (HT29 colon) was > 100 µM and the GI50 (EKVX NSCLC) was 46.6 µM. For the same compound, the TGI (EKVX NSCLC) was > 100 µM, the GI50 (CAKI-1 renal) was 42.6 µM and the TGI (CAKI-1 renal) was > 100 µM. It also gave a GI50 (OVCAR-3 ovarian) of 19.1 µM, a TGI (OVCAR-3 ovarian) of 46.1 µM and a GI50 (SF-295 CNS) of 40.1 µM. The TGI (SF-295 CNS) was > 100 µM, the GI50 (HCT-15 colon) was 13.2 µM and the TGI (HCT-15 colon) was > 100 µM. For the same compound, the GI50 (HOP-92 NSCLC) was 15.7 µM, the TGI (HOP-92 NSCLC) was 56.3 µM and the GI50 (COLO 205 colon) was 16 µM. For the same compound, the TGI (COLO 205 colon) was 35.6 µM, the GI50 (SK-OV-3 ovarian) was > 100 µM and the TGI (SK-OV-3 ovarian) was > 100 µM. The GI50 (OVCAR-4 ovarian) was 47.4 µM, the TGI (OVCAR-4 ovarian) was > 100 µM and the GI50 (A498 renal) was 69.9 µM. The TGI (A498 renal) was > 100 µM.
